Experimental data as given in US20070110885A1, “Method for controlling retention of an organic compound or of a plurality of organic compounds inside a liquid or solid phase and applications of said method, in particular in the agri-food domain” (priority 2002, published 2007).
Values belong to the compound of their own block, whether it stands above or below them.

What was measured:
Format in all cases: physicochemical
[1] = Static headspace measurement of aroma release from a liquid phase to the vapour phase versus redox potential modified by gas bubbling; conditions: for effect of redox on aroma release/retention (headspace): FIG. 3, 4, 5; for change of mass sharing coefficient Ki when the redox potential of the first liquid phase is lowered: liquid phase/gas phase
Excerpt: The study of the checking of the mass sharing coefficient Ki of an organic compound (i) between two phases, respectively a first liquid phase and a second vapour phase, as a function of the redox potential value includes the quantification of the organic compound (i) in the vapour phase at equilibrium, by the static headspace technique. In the examples, the method of the invention is illustrated with aroma-type organic compounds (i).
The static headspace technique consists in analyzing the vapours in equilibrium above a solution placed in a confined atmosphere at a given temperature. The vapour analysis in gas chromatography (CPG) gives the volatile compound concentration of the “head space”.
The aroma solutions are prepared in a solution of 50 mM NaCl, the pH of which has been adjusted to pH 3 with HCl (1N) or at pH 7.5 with NaOH (1N).
Furthermore, tests have also been realized in the presence of a lactoserum protein, the β-lactoglobuline, dispersed (3%) in a solution of 50 mM NaCl at pH 3 or pH 7.5, or in whole or skimmed milk.
The redox is modified by bubbling a gas (hydrogen, nitrogen, helium, or oxygen) at a flowrate of 20 mL.min^−1 for a previously determined time (8 min). The redox measurement is realized after the gas bubbling step with a redox measurement electrode connected to a pH meter-voltameter. The thus prepared solutions are distributed on the basis of 10 mL in brown flasks of 40 mL (Supelco, France) closed by Mininert valve plugs (Supelco). […]
A control is realized in the presence of air: the bubbling step is not realized, only the pressurization occurs, in the same conditions as the other gasses.
The flasks are then equilibrated in a water bath at 30° C. for 1 hr 30. At least 3 brown flasks are prepared for each gas, a flask serving only for one injection.
At the equilibrium, 1 mL of vapour phase is taken with a 1 mL gas syringe (SGE), then injected in a gas chromatograph (CPG) provided with a DB-WAX column (J&W Scientific, diameter 0.32 mm, length 30 m, phase thickness 0.5 μm) and a flame ionization detector. The injector and detector temperatures are respectively 250° C. and 260° C. The vector gas velocity (hydrogen) at 143° C. is of 37 cm.sec-^1. The signal acquisition is achieved with a chromatogram acquisition and treatment software developed in the laboratory.
Thus, the amount of aroma present in the vapour phase is determined for each gas.

[2] = Retention of aroma between aqueous phase (water) and organic liquid phase (dichloromethane) versus redox; conditions: water/dichloromethane mixture; FIG. 9
Excerpt: FIG. 9 illustrates the results of a measurement of the retention degree of 2-nonanone between an aqueous phase (water) and an organic liquid phase (dichloromethane) with non pressurized flasks (diamonds) or pressurized flasks with hydrogen (squares).
The experiment of Example 2 is realized, but in a mixture of water (aqueous phase)/dichloromethane (CH2Cl2, organic phase).

[3] = Static headspace measurement with redox modified by addition of molecules (DTT, potassium ferricyanide)
Description: 1. Preparation of the Reducing Medium
The reducing medium is obtained by addition of DTT(1,4-dithiothreitol). The ultrapure water employed for the solution preparation is degassed with a high gas flowrate during 1 h. La 2-nonanone solution (50 ppm) is prepared through addition of such aroma into the degassed water; the solution volume has been chosen so that a minimum of air exists between the plug and the solution. The thus prepared solution is stirred for homogenisation for 30 min.
An aliquot of this solution is added with DTT (10 g.l^−1) and then this solution is stirred for 30 min.
In order to prevent the dilution phenomenon, another protocol has been used: the degassed water is added with DTT (10 g.l^−1), then the aroma is added.
The thus prepared solutions are distributed at a level of 10 mL in 40 mL brown flasks (Supelco, France) closed by Mininert valves (Supelco). The flasks are pressurized with nitrogen for 1 min with a flowrate of 260 mL.min^−1. The overpressure is then evacuated. The flasks are then equilibrated during 1 h 30 in a water bath at 30° C. For each one of the conditions, 4 repetitions are realized.
2. Preparation of the Oxidizing Medium
The oxidizing medium is obtained by addition of potassium ferricyanide.
Two aroma solutions are prepared: for solution 1, the 2-nonanone is solubilized in water and then the solution is stirred for 30 min; for solution 2, the potassium ferricyanide is dissolved in water, then the 2-nonanone is added. This solution is afterwards stirred during 30 min.
The thus prepared solutions are distributed at a level of 10 mL in 40 mL brown flasks (Supelco, France) closed by Mininert valves (Supelco).
The flasks are then equilibrated during 1 h 30 in a water bath at 30° C. For each one of the conditions, 4 repetitions are realized.

[4] = Evaluation of the aroma losses during gas bubbling (Tenax entrapment and pentane extraction); conditions: 50 ppm in NaCl 50 mM pH 7.5
Description: 4. Evaluation of the Losses During the Bubbling
The aroma losses upon bubbling have been evaluated by entrapment on an absorbing polymer (Tenax) of the gas effluent at the flask outlet and by extraction of the liquid phase with pentane. The same is done for all the gasses being used.
The loss test is made on a 50 mL of a 2-nonanone solution (50 ppm) in NaCl (50 mM, pH 7.5).
The gas is simultaneously bubbled (8 min) at the same flowrate of 20 mL.min^−1 in the flask, then the gas effluent is entrapped on Tenax at the flask outlet. This Tenax trap is afterwards desorbed on a TCT Chrompak apparatus coupled with a HP chromatograph provided with a FID detector.
The amount of aroma entrapped on Tenax is determined in comparison with an external calibration curve. This calibration curve is obtained as described hereinafter: 1 μl of 2-nonanone solution is deposited in pentane in the glass cotton of the Tenax tube upper part, then the Tenax tube is desorbed in the same conditions as for the analysis. Different concentrations have been tested.
The amount of aroma remaining in the liquid phase is determined by extraction of the aroma solution (5 mL) by pentane (5 mL). One μl of the organic phase is injected in split/splitless in CPG. A comparison is made with an external calibration, obtained by injection of 1 μl of 2-nonanone solution in pentane.

SMILES: C=CCN=C=S [AITC, allyl isothiocyanate]
effect of redox on aroma release/retention (headspace) ([1]; conditions of Examples 2, 3, 4): −30%
change of mass sharing coefficient Ki when the redox potential of the first liquid phase is lowered [1]: growth of the mass sharing coefficient Ki value

retention in the aqueous phase at low redox [2]: better retained in the aqueous phase
effect of a positive redox potential value on release ([1]; aqueous liquid phase contacted with 100% oxygen or air (21% oxygen), same with 100% nitrogen): favours the release or the transfer
retention within the liquid phase with helium gas ([1]; aqueous solution pH 7.5, helium, redox +400 mV): no significant difference
modification of the medium aroma release at low redox (headspace) ([1]; aqueous solution pH 7.5, hydrogen -320 mV versus nitrogen/oxygen about +500 mV, FIG. 1): ~−30%
effect when the atmosphere is neutral or oxidizing and the redox increases ([1]; aqueous solution pH 7.5, hydrogen, non pressurized flask, FIG. 8): effect inverses
effect at low redox under reducing atmosphere ([1]; aqueous solution pH 7.5, hydrogen, pressurized flask, FIG. 8): retention effect
modification of the aroma release at low redox (headspace) ([1]; aqueous solution, acid medium, FIG. 1): −20%
effect at high redox ([1]; skimmed milk, FIG. 7): no effect
retention effect at low redox ([1]; skimmed milk, FIG. 7): −20%
redox effect on the aroma release ([1]; whole milk, FIG. 7): do not show any redox effect
aroma losses during bubbling ([4]; helium): 0.5%
aroma losses during bubbling ([4]; hydrogen): 0.3%
aroma losses during bubbling ([4]; nitrogen): 2%
aroma losses during bubbling ([4]; oxygen): 2.3%
aroma losses during bubbling ([4]; regardless of the gas employed, bubbling 8 min at 20 mL/min): < 3%
SMILES: CCCCCCCC(C)=O [2-nonanone]
difference of retention depending on the redox ([1]; aqueous solution with beta-lactoglobuline at 3%, pH 7.5 and acid medium, FIG. 2): does not show any difference of retention depending on the redox
effect of a negative level of redox potential on retention ([1]; liquid phase contacted with gas containing 100% hydrogen): favours the 2-nonanone retention in the liquid phase
change of mass sharing coefficient Ki when the redox potential of the first liquid phase is lowered [1]: growth of the mass sharing coefficient Ki value
change of mass sharing coefficient Ki at low redox potential ([1]; skimmed milk, pH 4.6): reduction of the mass sharing coefficient value Ki
effect of reducing the redox potential by a reducing compound ([3]; aqueous liquid phase, dithiothreitol (DTT) added): favours the 2-nonanone retention in the liquid phase
effect of increasing the redox potential by an oxidizing compound ([3]; aqueous liquid phase, potassium ferricyanide added): favours the 2-nonanone release or transfer towards the second gas phase
release in the vapour phase in a reducing medium versus oxidizing medium ([3]; water, 50 ppm, DTT 10 g/l versus potassium ferricyanide, FIG. 10): less 2-nonanone released in the vapour phase than in the oxidizing medium

effect of redox on aroma release/retention (headspace) ([1]; conditions of Examples 2, 3, 4): +20%
SMILES: CC(=O)C(C)=O [diacetyl]
change of mass sharing coefficient Ki when the redox potential of the first liquid phase is lowered [1]: increase of the mass sharing coefficient Ki

effect of redox on aroma release/retention (headspace), in words ([1]; conditions of Examples 2, 3, 4, FIG. 5): no effect
change of mass sharing coefficient Ki when the redox potential of the first liquid phase is lowered [1]: lack of significant modification
SMILES: CCCCCC(=O)OCC [ethyl hexanoate]
